Structures can show the parent of a compound that is named as a salt.
Tests used:
Format in all cases: biochemical
[1] = molecular target: DPP-IX (Homo sapiens (Human), UniProt Q86TI2); experiment: Measurement of DPP-IX inhibitory activity (Gly-Pro-AFC); settings: 100 μM Gly-Pro-AFC, 50 mM HEPES pH 7.5, room temperature
[2] = molecular target: DPP-II (Homo sapiens (Human), UniProt Q9UHL4); experiment: Measurement of DPP-II inhibitory activity (Gly-Pro-AFC); settings: 100 μM Gly-Pro-AFC, 50 mM acetic acid pH 4.5, room temperature
[3] = molecular target: DPP-VIII (Homo sapiens (Human), UniProt Q6V1X1); experiment: Measurement of DPP-VIII inhibitory activity (Gly-Pro-AFC); settings: 100 μM Gly-Pro-AFC, 50 mM HEPES pH 7.5, room temperature
DPP-VIII, sequence (Q6V1X1 whole entry, species assumed): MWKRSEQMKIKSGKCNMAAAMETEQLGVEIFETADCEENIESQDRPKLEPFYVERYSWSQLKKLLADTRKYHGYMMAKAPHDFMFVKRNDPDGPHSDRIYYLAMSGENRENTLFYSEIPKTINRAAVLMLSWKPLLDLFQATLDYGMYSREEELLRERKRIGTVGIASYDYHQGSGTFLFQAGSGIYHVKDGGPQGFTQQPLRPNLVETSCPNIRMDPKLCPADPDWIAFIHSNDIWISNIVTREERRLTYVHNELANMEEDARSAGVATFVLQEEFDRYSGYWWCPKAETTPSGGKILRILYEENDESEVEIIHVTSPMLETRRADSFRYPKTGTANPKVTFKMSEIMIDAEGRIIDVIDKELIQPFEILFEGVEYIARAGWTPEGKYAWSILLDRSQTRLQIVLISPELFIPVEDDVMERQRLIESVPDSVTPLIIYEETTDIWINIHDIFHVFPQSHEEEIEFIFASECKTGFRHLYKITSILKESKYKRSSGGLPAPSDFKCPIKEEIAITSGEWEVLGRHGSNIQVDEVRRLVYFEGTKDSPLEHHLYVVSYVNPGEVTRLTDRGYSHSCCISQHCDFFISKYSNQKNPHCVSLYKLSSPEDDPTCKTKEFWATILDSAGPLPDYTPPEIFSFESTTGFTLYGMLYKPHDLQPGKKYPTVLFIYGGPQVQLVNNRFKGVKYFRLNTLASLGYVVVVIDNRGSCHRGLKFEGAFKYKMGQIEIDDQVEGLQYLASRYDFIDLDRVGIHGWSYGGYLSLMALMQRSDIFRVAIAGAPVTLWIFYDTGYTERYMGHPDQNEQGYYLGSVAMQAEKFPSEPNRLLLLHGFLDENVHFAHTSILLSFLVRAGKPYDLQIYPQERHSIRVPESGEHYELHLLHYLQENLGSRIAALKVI

[4] = molecular target: Dipeptidyl peptidase-IV (DPP-IV) (Homo sapiens (Human), UniProt P27487); experiment: Assay of DPP-IV inhibitory activity (fluorescent substrate Ac-Gly-Pro-AFC); settings: DPP-IV 7.1 nM, 100 μM Ac-Gly-Pro-AFC, 25° C., 50 mM HEPES pH 7.4, 1 hour
Dipeptidyl peptidase-IV (DPP-IV), sequence (P27487 whole entry): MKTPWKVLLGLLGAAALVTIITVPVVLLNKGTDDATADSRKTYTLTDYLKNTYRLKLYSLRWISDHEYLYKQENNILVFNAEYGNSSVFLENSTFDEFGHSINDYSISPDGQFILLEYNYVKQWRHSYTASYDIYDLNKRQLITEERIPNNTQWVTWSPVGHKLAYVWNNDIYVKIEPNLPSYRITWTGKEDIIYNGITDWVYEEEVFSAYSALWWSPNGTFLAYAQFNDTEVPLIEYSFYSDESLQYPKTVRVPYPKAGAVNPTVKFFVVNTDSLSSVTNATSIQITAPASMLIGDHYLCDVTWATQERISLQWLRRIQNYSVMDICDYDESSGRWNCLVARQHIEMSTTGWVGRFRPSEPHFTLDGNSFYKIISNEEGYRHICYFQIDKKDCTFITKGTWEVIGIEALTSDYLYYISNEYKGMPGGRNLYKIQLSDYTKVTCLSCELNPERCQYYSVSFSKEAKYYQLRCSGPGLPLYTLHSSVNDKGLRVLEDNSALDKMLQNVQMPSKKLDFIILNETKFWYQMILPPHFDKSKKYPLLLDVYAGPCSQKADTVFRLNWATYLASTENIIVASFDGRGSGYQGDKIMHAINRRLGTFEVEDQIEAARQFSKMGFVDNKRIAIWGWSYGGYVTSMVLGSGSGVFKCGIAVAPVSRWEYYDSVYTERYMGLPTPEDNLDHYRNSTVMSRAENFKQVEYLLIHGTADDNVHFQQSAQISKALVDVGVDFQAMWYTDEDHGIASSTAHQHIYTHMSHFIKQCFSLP

DPP-IX, sequence (Q86TI2 whole entry, species assumed): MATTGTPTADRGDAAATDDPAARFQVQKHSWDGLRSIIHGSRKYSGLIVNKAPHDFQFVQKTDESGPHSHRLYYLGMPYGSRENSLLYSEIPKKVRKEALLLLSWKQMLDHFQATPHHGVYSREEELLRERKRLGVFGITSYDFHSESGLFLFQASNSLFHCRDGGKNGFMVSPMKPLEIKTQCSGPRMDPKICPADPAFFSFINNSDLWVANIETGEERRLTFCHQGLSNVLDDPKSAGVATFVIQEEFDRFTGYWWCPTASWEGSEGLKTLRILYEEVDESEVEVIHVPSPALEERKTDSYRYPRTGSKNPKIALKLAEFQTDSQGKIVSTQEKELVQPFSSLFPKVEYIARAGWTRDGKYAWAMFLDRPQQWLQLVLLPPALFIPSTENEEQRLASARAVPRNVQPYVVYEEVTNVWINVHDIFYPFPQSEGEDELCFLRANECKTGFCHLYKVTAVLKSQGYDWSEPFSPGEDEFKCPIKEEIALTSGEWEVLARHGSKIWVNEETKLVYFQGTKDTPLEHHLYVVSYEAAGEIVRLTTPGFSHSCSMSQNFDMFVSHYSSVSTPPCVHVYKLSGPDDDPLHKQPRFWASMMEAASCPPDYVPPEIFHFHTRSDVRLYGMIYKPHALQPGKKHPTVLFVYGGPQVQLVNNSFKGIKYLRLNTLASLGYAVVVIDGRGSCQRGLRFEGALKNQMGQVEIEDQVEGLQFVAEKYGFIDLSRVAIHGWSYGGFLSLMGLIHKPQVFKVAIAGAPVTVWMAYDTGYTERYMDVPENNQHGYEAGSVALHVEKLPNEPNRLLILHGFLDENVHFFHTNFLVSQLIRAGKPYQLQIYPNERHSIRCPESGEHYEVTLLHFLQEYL

| SMILES | IC50 [1] [µM] | IC50 [2] [µM] | IC50 [3] [µM] | IC50 [4] [µM] |
| --- | --- | --- | --- | --- |
| N[C@@H](CC(=O)N1CCc2c(nc(C(F)(F)F)nc2C(F)(F)F)C1)CN1C(=O)CCC(F)(F)[C@@H]1O [Example 2, 1-[(2S)-amino-4-(2,4-bis-trifluoromethyl-5,8-dihydro-6H-pyrido[3,4-d]pyrimidin-7-yl)-4-oxo-butyl]-5,5-difluoro-(6S)-hydroxy-piperidin-2-one hydrochloride] | > 400 | – | – | – |
| N[C@@H](CC(=O)N1CCc2c(nc(C3CCC3)nc2C(F)(F)F)C1)CN1C(=O)CCC(F)(F)C1O (stereo partly drawn) [Example 5, 1-[(S)-2-amino-4-(2-cyclobutyl-4-trifluoromethyl-5,8-dihydro-6H-pyrido[3,4-d]pyrimidin-7-yl)-4-oxo-butyl]-5,5-difluoro-6-hydroxy-piperidin-2-one hydrochloride] | > 400 | > 161 | > 400 | – |
| N[C@@H](CC(=O)N1CCc2c(nc(-c3ccncc3)nc2C(F)(F)F)C1)CN1C(=O)CCC(F)(F)[C@@H]1O [Example 6, 1-[(S)-2-amino-4-oxo-4-(2-pyridin-4-yl-4-trifluoromethyl-5,8-dihydro-6H-pyrido[3,4-d]pyrimidin-7-yl)-butyl]-5,5-difluoro-6-hydroxy-piperidin-2-one] | > 100 | > 70 | > 127 | – |
| N[C@@H](CC(=O)N1CCc2c(nc(-c3ccco3)nc2C(F)(F)F)C1)CN1C(=O)CCC(F)(F)[C@@H]1O [Example 8, 1-[(S)-2-amino-4-(2-furan-2-yl-4-trifluoromethyl-5,8-dihydro-6H-pyrido[3,4-d]pyrimidin-7-yl)-butyl]-4-oxo-butyl]-5,5-difluoro-6-hydroxy-piperidin-2-one hydrochloride] | > 130 | > 80 | > 400 | – |
| COCCc1nc2c(c(C(F)(F)F)n1)CCN(C(=O)C[C@H](N)CN1C(=O)CCC(F)(F)[C@@H]1O)C2 [Example 10, 1-{(S)-2-amino-4-[2-(2-methoxy-ethyl)-4-trifluoromethyl-5,8-dihydro-6H-pyrido[3,4-d]pyrimidin-7-yl]-4-oxo-butyl}-5,5-difluoro-6-hydroxy-piperidin-2-one hydrochloride] | > 210 | > 400 | > 400 | – |
| CC1CC(=O)N(C[C@@H](N)CC(=O)N2CCc3c(nc(C(C)(C)C)nc3C(F)(F)F)C2)C1=O (stereo partly drawn) [Example 22, 1-[(S)-2-amino-4-(2-t-butyl-4-trifluoromethyl-5,8-dihydro-6H-pyrido[3,4-d]pyrimidin-7-yl)-4-oxo-butyl]-3-methyl-pyrrolidine-2,6-dione hydrochloride] | – | – | – | > 2.5 |

— patent US8470836B2, “Dipeptidyl peptidase-IV inhibiting compounds, methods of preparing the same, and pharmaceutical compositions containing the same as active agent” (LG Life Sciences, Ltd., priority 2007, dated 2013)
